This is an account of results in patent publication US11351142B2, “Composition and method for treating neuronal ceroid lipofuscinosis” (Rush University Medical Center, priority 2012, dated 2022).

In one test the test system is Cln2 mRNA. Description: Cln2 mRNA expression by semi-quantitative RT-PCR and real-time PCR in mouse primary astrocytes. Type of test: cell-based. How it is done: Astroglia were isolated from mixed glial cultures as described (17,18) according to the procedure of Giulian and Baker (19). Briefly, on day 9, the mixed glial cultures were washed three times with Dulbecco's modified Eagle's medium/F-12 and subjected to shaking at 240 rpm for 2 h at 37° C. on a rotary shaker to remove microglia. After 2 days, the shaking was repeated for 24 h for the removal of oligodendroglia and to ensure the complete removal of all nonastroglial cells. The attached cells were seeded onto new plates for further studies. Total RNA was isolated from mouse primary astrocytes and human primary astrocytes using RNA-Easy Qiagen (Valencia, Calif.) kit following manufactures protocol. Semi-quantitative RT-PCR was carried out as described earlier (24) using oligo (dT) 12-18 as primer and moloney murine leukemia virus reverse transcriptase (MMLV-RT, Invitrogen) in a 20 μl reaction mixture. The resulting cDNA was appropriately amplified using Promega Master Mix (Madison, Wis.) and the following primers (Invitrogen) for murine genes: The mRNA quantification was performed using the ABI-Prism7700 sequence detection system (Applied Biosystems, Foster City, Calif.) using iTaq™ Fast Supermix With ROX (Bio-Rad, Hercules, Calif.) and the following 6-FAM/ZEN/IBFQ-labeled primers for murine genes: Cln2 and Gapdh (Integrated DNA Technologies Coralville, Iowa). The mRNA expression of the targeted genes was normalized to the level of Gapdh mRNA and data was processed by the ABI Sequence Detection System 1.6 software.
(In general: In qPCR the cycle at which signal appears reflects the starting amount.)

Another test relates to TPP1. The test is described as follows: Western blot and densitometric analysis of TPP1 in mouse primary astrocytes. The class given is cell-based. How it is done: Astroglia were isolated from mixed glial cultures as described (17,18) according to the procedure of Giulian and Baker (19). Briefly, on day 9, the mixed glial cultures were washed three times with Dulbecco's modified Eagle's medium/F-12 and subjected to shaking at 240 rpm for 2 h at 37° C. on a rotary shaker to remove microglia. After 2 days, the shaking was repeated for 24 h for the removal of oligodendroglia and to ensure the complete removal of all nonastroglial cells. The attached cells were seeded onto new plates for further studies.
Western blotting was conducted as described earlier (27,28) with modifications. Briefly, cells were scraped in double-distilled H20 and sodium dodecyl sulfate (SDS), electrophoresed on NuPAGE® Novex® 4-12% Bis-Tris gels (Invitrogen) and proteins transferred onto a nitrocellulose membrane (Bio-Rad) using the Thermo-Pierce Fast Semi-Dry Blotter. The membrane was then washed for 15 min in TBS plus Tween 20 (TBST) and blocked for 1 hr in TBST containing BSA. Next, membranes were incubated overnight at 4° C. under shaking conditions with the following 1° antibodies; TPP1 (1:250, Santa Cruz), β-actin (1:800; Abcam, Cambridge, Mass. The next day, membranes were washed in TBST for 1 hr, incubated in 2° antibodies against 1° antibody hosts (all 1:10,000; Jackson ImmunoResearch) for 1 hr at room temperature, washed for one more hour and visualized under the Odyssey® Infrared Imaging System (Li-COR, Lincoln, Nebr.).
Protein blots were analyzed using ImageJ (NIH, Bethesda, Md.) and bands were normalized to their respective β-actin loading controls. Data are representative of the average fold change with respect to control for three independent experiments.
(Immunoblotting shows a protein as a band on a membrane.)

Turning to `CC1=C(/C=C/C(C)=C/C=C/C(C)=C/C(=O)O)C(C)(C)CCC1` [RA, all-trans retinoic acid], in the test with Cln2 mRNA (astrocytes with RXRα knockdown (RXRα siRNA), gemfibrozil (10 μM), RA (0.5 μM) alone and in combination), the “Cln2 level (quantitative real time PCR)” value is on record as “almost unresponsive”. In addition, the “increase in Cln2 mRNA levels (quantitative real time PCR)” value in the test on Cln2 mRNA (mouse primary astrocytes, 24 hrs, RA 0.5 μM, gemfibrozil 10 μM, combination 10 μM gemfibrozil and 0.5 μM RA) is on record as “about 3.5 fold”. Also, the “induction of TPP1 (immunoblot)” value with TPP1 (PPARα−/− astrocytes, RA (0.5 μM) and combination of gemfibrozil (10 μM) and RA (0.5 μM)) is given as “neither RA alone nor the combination could induce TPP1”. Also, the “TPP1 levels (Western blot, densitometric analysis)” value in the test on TPP1 (RXRα siRNA transfected astrocytes, gemfibrozil (10 μM), RA (0.5 μM) alone and in combination) is “almost no enhancement”.
